Assay results as given in paper PMC11407758, “Integrated stress response (ISR) activation and apoptosis through HRI kinase by PG3 and other p53 pathway-restoring cancer therapeutics” (Oncotarget, 2024).

Experiments:
[1] = tested on: GCN2, PKR, eIF2α, ATF4, CHOP in HT29 cells; assay: Western blot, ISR kinases / eIF2α / ATF4 / CHOP; type: cell-based, human
Procedure: Figure 7 PG3 induces upregulation of ATF4 through ISR via HRI. (A) HT29 cells were treated with PG3, GSK2606414, TG and ONC201 respectively, or co-treatment with PG3/GSK2606414, PG3/TG, and PG3/ONC201 for 15 h. (B) MEF, MEF^PERK−/− and MEF^GCN2−/− cells were treated with PG3 and ONC201 for 16 hours. (C) HT29 cells were transfected with siControl, siPKR, siHRI and siPKR/siHRI for 24 hours and then treated with PG3 for 16 hours. (D) HCT116 p53^−/− cells were transfected with siControl and siHRI for 24 hours and then treated with PG3 for 16 hours. (E) HCT116 p53^−/− cells were treated with PG3 and ONC201 for indicated times. (F) PANC1-sgCtrl, -sgHRI and -sgPKR cell lines were treated with PG3 and imipridones (ONC201, ONC206 and ONC212) for 16 hours. Western blot was performed using indicated antibodies. (G) Proposed model of PG3-induced cell apoptosis through HRI/ATF4/PUMA axis. Abbreviation: L.E.: Long exposure.
After treatment, protein lysates were collected for Western blot analysis. A total of 15 μg of protein was used for SDS-PAGE. After primary and secondary antibody incubations, the signal was detected by a chemiluminescence detection kit, imaged by Syngene (Imgen Technologies). Antibodies for NAG-1 (GDF15) and P53 were from Santa Cruz Biotechnology; for caspase 8, cleaved caspase 8, caspase 9, caspase 3, cleavage PARP, eIF2α, p-eIF2α (Ser51), CHOP, ATF4, DR5, and PUMA were from Cell Signaling Technology. Noxa and p21 were from Calbiochem. Ran was from BD Biosciences.
Supplementary Figure 2: ROS and NO are not responsible for PG3-induced HRI activation. (A, B) cells were pre-treated
with ZnPP, L-NMMA, SA and NAC for 2 hours respectively, and then ONC201 or PG3 was added to the medium for 24 hour treatment.
Western blot was performed using indicated antibodies.
(1 picture or pasted object on this page, not shown here)

HRI = tested on: HRI; set-up: method as in PMID 22827572; details: cited from earlier work

Compound: Cn1cc(-c2ccc3c(c2)CCN3C(=O)Cc2cccc(C(F)(F)F)c2)c2c(N)ncnc21 [GSK2606414, 7-methyl-5-(1-{[3-(trifluoromethyl)phenyl]acetyl}-2,3-dihydro-1H-indol-5-yl)-7H-pyrrolo[2,3-d]pyrimidin-4-amine]
- effect on ONC201-induced upregulation of ATF4 and CHOP ([1]; HT29, co-treatment with ONC201): significantly attenuates
- effect on PG3-induced eIF2α phosphorylation, ATF4 and CHOP upregulation ([1]; HT29, co-treatment with PG3, 15 h): does not block
- effect on TG-induced upregulation of ATF4 and CHOP ([1]; HT29, co-treatment with thapsigargin): abolishes
- IC50 (HRI): 420 nM
